Assay results: paper PMC9666779 (Frontiers in Pharmacology, 2022)
Bridge positions count the residues as written; N and C are the ends. Square brackets hold non-standard residues; d marks the D form. Peptide text beside a SMILES is read from it.

Key:
Mpro = Mpro (Severe acute respiratory syndrome coronavirus 2, UniProt P0DTD1); assay: biochemical; assay type: binding, SARS-CoV-2
NRP1 = NRP1 (Homo sapiens, UniProt O14786); assay: biochemical; assay type: binding
SARS-CoV-2 Mpro = SARS-CoV-2 Mpro (Severe acute respiratory syndrome coronavirus 2, UniProt P0DTD1); assay: biochemical
Description: According to a previously reported method ([Du et al., 2021]), the FRET-based enzymatic assay was used to evaluate the inhibitory effects of the peptides on Mpro. First, the Mpro (250 nM at a final concentration) was incubated with various concentrations of tested peptides in 90 μL reaction buffer for 30 min in a black 96-well plate, and then the reaction was initiated by adding 10 μL of […] FRET-based peptide substrate (Dabcyl-KTSAVLQ/SGFRKME-Edans). The reaction was monitored for 1 h, and the initial velocity was calculated using the data by linear regression. The IC50 was calculated by plotting the initial velocity against various concentrations of testing inhibitor by using a four parameters dose−response curve in Prism software.

FHs 74 Int cells = assay: MTT cytotoxicity assay, FHs 74 Int cells; assay type: cell-based, human; conditions: 50 μM, 48 h
Description: According to a previously reported method ([Zheng et al., 2021b]), 293T, A549 and FHs 74 Int cells were plated in 96-well plates at a density of 5 × 10^4 cells per well. After incubation for 24 h, the peptide solution was added into the plates and the cells were incubated for 48 h. After that, the incubation medium was removed, the cells were washed with PBS at pH 7.4, and then MTT stock solution (0.5 mg/ml) was added into each well and incubated for another 4 h. The medium was removed by centrifugation, and the precipitated cells were lysed using DMSO. After the purple crystals were completely dissolved, the cell viability was calculated according to the absorbance signals measured by a microplate reader at the wavelength of 570 nm.
Figure S2. The cytotoxicity effects of MNs 1-4 on FHs 74 Int cells detected using MTT assay. Cells were treated with the concentration of 50 μM of peptides for 48 h. The results are represented as mean ± SD (n = 3).

Sequence of NRP1 (O14786 273-427): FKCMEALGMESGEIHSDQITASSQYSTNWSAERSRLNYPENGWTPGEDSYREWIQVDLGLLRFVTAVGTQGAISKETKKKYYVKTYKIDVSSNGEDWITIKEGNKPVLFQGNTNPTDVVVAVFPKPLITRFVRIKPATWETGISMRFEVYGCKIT

Structure (SMILES)	Mpro, Kd (Mpro; MST, mean ± SD (n = 3))	Kd (NRP1) [nM]	Kd (Mpro) [nM]	IC50 (SARS-CoV-2 Mpro) [nM]	viability of FHs 74 Int cells (cytotoxicity) (FHs 74 Int cells)
CC(C)C[C@@H]1NC(=O)[C@H](CCC(N)=O)NC(=O)[C@H](CCCNC(=N)N)NC(=O)[C@H](C)NC(=O)[C@H](CCCCN)NC(=O)[C@@H]2CSSC[C@@H](C(=O)N[C@@H](CC(=O)O)C(=O)N[C@@H](CCCCN)C(=O)N3CCC[C@H]3C(=O)N[C@@H](CCCNC(=N)N)C(=O)N[C@@H](CCCNC(=N)N)C(=O)O)NC(=O)[C@H](CCCNC(=N)N)NC(=O)[C@H](CSSC[C@H](NC(=O)[C@@H](N)CO)C(=O)N[C@@H](CCCCN)C(=O)N[C@@H](CC(N)=O)C(=O)N[C@@H]([C@@H](C)O)C(=O)N[C@@H](CC(=O)O)C(=O)N[C@@H](CO)C(=O)N[C@@H](CCCNC(=N)N)C(=O)N2)NC(=O)[C@H]([C@@H](C)O)NC(=O)[C@H](CCCNC(=N)N)NC(=O)[C@H](CCC(=O)O)NC(=O)[C@H](CC(N)=O)NC(=O)[C@H](CC(C)C)NC(=O)[C@H](CCC(=O)O)NC1=O [EG3287, reference compound] (H-SCKNTDSRCKARQLELNERTCRCDKPRR-OH; disulfide 2-21, 9-23; N-terminus assumed)	no binding affinity	912 ± 10.6			
CC(C)C[C@@H]1NC(=O)[C@H](C(C)C)NC(=O)[C@H](C)NC(=O)[C@H](Cc2ccccc2)NC(=O)[C@H](CCC(N)=O)NC(=O)[C@H](CC(C)C)NC(=O)[C@@H](Cc2ccccc2)NC(=O)[C@H](N)CSSC[C@H](C(=O)NCC(=O)NCC(=O)NCC(=O)N[C@@H](CCCNC(=N)N)C(=O)N2CCC[C@H]2C(=O)N[C@@H](CCCNC(=N)N)C(=O)N[C@@H](CCCNC(=N)N)C(=O)NCC(=O)N[C@@H](CCCNC(=N)N)C(=O)O)NC(=O)[C@H](CCC(N)=O)NC(=O)[C@H](CCCCN)NC(=O)[C@H](CCCNC(=N)N)NC(=O)[C@H](CCCNC(=N)N)NC(=O)[C@H](Cc2c[nH]cn2)NC(=O)[C@H](CCCNC(=N)N)NC1=O [MN-1] (H-[dC][dF]LQFAVLRHRRKQ[dC]GGGRPRRGR-OH; disulfide 1-15)		95.6 ± 4.1	53.4 ± 2.5	56.3 ± 3.9	
CC(C)C[C@@H]1NC(=O)[C@H](C(C)C)NC(=O)[C@H](C)NC(=O)[C@H](Cc2ccc(O)cc2)NC(=O)[C@H](CCC(N)=O)NC(=O)[C@H](CC(C)C)NC(=O)[C@@H](Cc2ccccc2)NC(=O)[C@H](N)CSSC[C@H](C(=O)NCC(=O)NCC(=O)NCC(=O)N[C@@H](CCCNC(=N)N)C(=O)N2CCC[C@H]2C(=O)N2CCC[C@H]2C(=O)N[C@@H](CCCNC(=N)N)C(=O)N[C@@H](CCCNC(=N)N)C(=O)N[C@@H](C)C(=O)N[C@@H](CCCNC(=N)N)C(=O)O)NC(=O)[C@H](CCC(=O)O)NC(=O)[C@H](CCCNC(=N)N)NC(=O)[C@H](CCCNC(=N)N)NC(=O)[C@H](CCCCN)NC(=O)[C@H](CCC(N)=O)NC(=O)[C@H](CCCCN)NC1=O [MN-2] (H-[dC][dF]LQYAVLKQKRRE[dC]GGGRPPRRAR-OH; disulfide 1-15)		12.3 ± 1.2	18.2 ± 1.9	20.6 ± 2.2	undetectable cytotoxicity
CC[C@@H](C)[C@H]1NC(=O)[C@H](N)CSSC[C@H](C(=O)NCC(=O)NCC(=O)NCC(=O)N[C@@H](CCCNC(=N)N)C(=O)NCC(=O)N[C@@H](CCC(=O)O)C(=O)N[C@@H](CCCNC(=N)N)C(=O)N2CCC[C@H]2C(=O)N2CCC[C@H]2C(=O)N[C@@H](CCCNC(=N)N)C(=O)O)NC(=O)[C@H](CCCCN)NC(=O)[C@H](CCCNC(=N)N)NC(=O)[C@H](CCC(N)=O)NC(=O)[C@H](CCCNC(=N)N)NC(=O)[C@H](CCCCN)NC(=O)[C@H](CCCCN)NC(=O)[C@H](Cc2ccccc2)NC(=O)[C@H](C(C)C)NC(=O)[C@H](C)NC(=O)[C@H](CC(C)C)NC(=O)[C@H](CCC(N)=O)NC(=O)[C@H](CC(C)C)NC1=O [MN-3] (H-[dC][dI]LQLAVFKKRQRK[dC]GGGRGERPPR-OH; disulfide 1-15)		110 ± 6.7	206 ± 8.8	209 ± 7.6	
CC(C)C[C@@H]1NC(=O)[C@H](C(C)C)NC(=O)[C@H](C)NC(=O)[C@H](Cc2ccccc2)NC(=O)[C@H](CCC(N)=O)NC(=O)[C@H](CC(C)C)NC(=O)[C@@H](Cc2c[nH]c3ccccc23)NC(=O)[C@H](N)CSSC[C@H](C(=O)NCC(=O)NCC(=O)N[C@@H](CCCNC(=N)N)C(=O)N2CCC[C@H]2C(=O)N[C@@H](C)C(=O)N[C@@H](CCCNC(=N)N)C(=O)N2CCC[C@H]2C(=O)N[C@@H](C)C(=O)N[C@@H](CCCNC(=N)N)C(=O)O)NC(=O)[C@H](C)NC(=O)[C@H](CCC(N)=O)NC(=O)[C@H](CCCCN)NC(=O)[C@H](CCCCN)NC(=O)[C@H](CCC(=O)O)NC(=O)[C@H](CCCNC(=N)N)NC1=O [MN-4] (H-[dC][dW]LQFAVLREKKQA[dC]GGRPARPAR-OH; disulfide 1-15)		15.1 ± 3.3	116 ± 5.5	119 ± 6.1	
